Tested on: 362531-283-R-J2-PDC complex spheroid viability
Assay: Anticancer human tumor 362531-283-R-J2-PDC patient-derived colon adenocarcinoma cell line growth inhibition [RAS]
Settings: for IC50: curve of first compound; for viability, T/C: stronger effect = lower value
Summary of the method: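 Tumour cells grown as complex spheroids with HUVEC endothelial cells and mesenchymal stem cells, treated with RAS pathway inhibitor combinations. Each agent spans half-log steps from near clinical Cmax, or 10 microM where Cmax is unknown.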

[1] = second compound 0.0316 µM, first compound 0.0316 µM
[2] = second compound 0.0316 µM, first compound 0.1 µM
[3] = second compound 0.0316 µM, first compound 0.316 µM
[4] = second compound 0.0316 µM, first compound 1 µM
[5] = second compound 0.0316 µM, first compound 3.16 µM
[6] = second compound 0.0316 µM, first compound 10 µM
[7] = second compound 0.1 µM, first compound 0.0316 µM
[8] = second compound 0.1 µM, first compound 0.1 µM
[9] = second compound 0.1 µM, first compound 0.316 µM
[10] = second compound 0.1 µM, first compound 1 µM
[11] = second compound 0.1 µM, first compound 3.16 µM
[12] = second compound 0.1 µM, first compound 10 µM
[13] = second compound 0.316 µM, first compound 0.0316 µM
[14] = second compound 0.316 µM, first compound 0.1 µM
[15] = second compound 0.316 µM, first compound 0.316 µM
[16] = second compound 0.316 µM, first compound 1 µM
[17] = second compound 0.316 µM, first compound 3.16 µM
[18] = second compound 0.316 µM, first compound 10 µM
[19] = second compound 1 µM, first compound 0.0316 µM
[20] = second compound 1 µM, first compound 0.1 µM
[21] = second compound 1 µM, first compound 0.316 µM
[22] = second compound 1 µM, first compound 1 µM
[23] = second compound 1 µM, first compound 3.16 µM
[24] = second compound 1 µM, first compound 10 µM
[25] = second compound 3.16 µM, first compound 0.0316 µM
[26] = second compound 3.16 µM, first compound 0.1 µM
[27] = second compound 3.16 µM, first compound 0.316 µM
[28] = second compound 3.16 µM, first compound 1 µM
[29] = second compound 3.16 µM, first compound 3.16 µM
[30] = second compound 3.16 µM, first compound 10 µM
[31] = second compound 10 µM, first compound 0.0316 µM
[32] = second compound 10 µM, first compound 0.1 µM
[33] = second compound 10 µM, first compound 0.316 µM
[34] = second compound 10 µM, first compound 1 µM
[35] = second compound 10 µM, first compound 3.16 µM
[36] = second compound 10 µM, first compound 10 µM
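Further: spheroids exposed to the agents for 7 days before readout.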
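Wherever viability, T/C is given: luminescence viability as percent of DMSO vehicle control wells.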

CCC(CC)c1cc(NC2CCC(N)C2)n2nccc2n1 (stereo not drawn) + C#Cc1c(F)ccc2cc(O)cc(-c3ncc4c(N5CC6CCC(C5)N6)nc(OCC56CCCN5CC(F)C6)nc4c3F)c12
IC50 (second compound 0.0316 µM): 4960 nM
IC50 (second compound 0.1 µM): 4360 nM
IC50 (second compound 0.316 µM): 5070 nM
IC50 (second compound 1 µM): 1820 nM
IC50 (second compound 3.16 µM): 1500 nM
IC50 (second compound 10 µM): 338 nM
viability, T/C [1]: 96.9%
viability, T/C [2]: 107%
viability, T/C [3]: 99.9%
viability, T/C [4]: 105%
viability, T/C [5]: 79%
viability, T/C [6]: 4.8%
viability, T/C [7]: 105%
viability, T/C [8]: 98.8%
viability, T/C [9]: 101%
viability, T/C [10]: 88%
viability, T/C [11]: 70%
viability, T/C [12]: 3.26%
viability, T/C [13]: 117%
viability, T/C [14]: 96.9%
viability, T/C [15]: 89.5%
viability, T/C [16]: 83.3%
viability, T/C [17]: 87.2%
viability, T/C [18]: 2.95%
viability, T/C [19]: 80.4%
viability, T/C [20]: 88.3%
viability, T/C [21]: 82.2%
viability, T/C [22]: 82.9%
viability, T/C [23]: 19.8%
viability, T/C [24]: 4.12%
viability, T/C [25]: 72.4%
viability, T/C [26]: 76.3%
viability, T/C [27]: 68.1%
viability, T/C [28]: 79.2%
viability, T/C [29]: 5.75%
viability, T/C [30]: 3.27%
viability, T/C [31]: 44.2%
viability, T/C [32]: 49.4%
viability, T/C [33]: 58.1%
viability, T/C [34]: 36.2%
viability, T/C [35]: 7.13%
viability, T/C [36]: 4.45%

Cc1nc(N2CCC3(CC2)COC(C)C3N)c(CO)nc1Sc1ccnc(N)c1Cl (stereo not drawn) + C#Cc1c(F)ccc2cc(O)cc(-c3ncc4c(N5CC6CCC(C5)N6)nc(OCC56CCCN5CC(F)C6)nc4c3F)c12
IC50 (second compound 0.0316 µM): 5180 nM
IC50 (second compound 0.1 µM): 1650 nM
IC50 (second compound 0.316 µM): 883 nM
IC50 (second compound 1 µM): 482 nM
IC50 (second compound 3.16 µM): 156 nM
IC50 (second compound 10 µM): < 31.6 nM
viability, T/C [1]: 104%
viability, T/C [2]: 107%
viability, T/C [3]: 94.8%
viability, T/C [4]: 88.9%
viability, T/C [5]: 76.1%
viability, T/C [6]: 19.1%
viability, T/C [7]: 104%
viability, T/C [8]: 102%
viability, T/C [9]: 92.3%
viability, T/C [10]: 69.5%
viability, T/C [11]: 25.7%
viability, T/C [12]: 4.47%
viability, T/C [13]: 99.9%
viability, T/C [14]: 93.3%
viability, T/C [15]: 79.2%
viability, T/C [16]: 49.8%
viability, T/C [17]: 7.28%
viability, T/C [18]: 4.45%
viability, T/C [19]: 81%
viability, T/C [20]: 81.5%
viability, T/C [21]: 69.5%
viability, T/C [22]: 16.2%
viability, T/C [23]: 7.77%
viability, T/C [24]: 4.16%
viability, T/C [25]: 81%
viability, T/C [26]: 59.2%
viability, T/C [27]: 35.6%
viability, T/C [28]: 11%
viability, T/C [29]: 9.29%
viability, T/C [30]: 6.04%
viability, T/C [31]: 38%
viability, T/C [32]: 22.6%
viability, T/C [33]: 14.1%
viability, T/C [34]: 13.3%
viability, T/C [35]: 8.12%
viability, T/C [36]: 3.97%

NC1c2ccccc2OC12CCN(c1cnc3c(N4CCCc5ncccc54)n[nH]c3n1)CC2 (stereo not drawn) + C#Cc1c(F)ccc2cc(O)cc(-c3ncc4c(N5CC6CCC(C5)N6)nc(OCC56CCCN5CC(F)C6)nc4c3F)c12
IC50 (second compound 0.0316 µM): 354 nM
IC50 (second compound 0.1 µM): 175 nM
IC50 (second compound 0.316 µM): 75.2 nM
IC50 (second compound 1 µM): 35.8 nM
IC50 (second compound 3.16 µM): < 31.6 nM
IC50 (second compound 10 µM): < 31.6 nM
viability, T/C [1]: 98.7%
viability, T/C [2]: 73.2%
viability, T/C [3]: 60.9%
viability, T/C [4]: 10.6%
viability, T/C [5]: 5.23%
viability, T/C [6]: 1.84%
viability, T/C [7]: 79.7%
viability, T/C [8]: 78.1%
viability, T/C [9]: 20.7%
viability, T/C [10]: 7.72%
viability, T/C [11]: 6.1%
viability, T/C [12]: 1.33%
viability, T/C [13]: 84.2%
viability, T/C [14]: 38.8%
viability, T/C [15]: 9.03%
viability, T/C [16]: 6.67%
viability, T/C [17]: 5.3%
viability, T/C [18]: 1.76%
viability, T/C [19]: 54.7%
viability, T/C [20]: 12.8%
viability, T/C [21]: 10.8%
viability, T/C [22]: 6.95%
viability, T/C [23]: 5.9%
viability, T/C [24]: 1.83%
viability, T/C [25]: 25.5%
viability, T/C [26]: 9.78%
viability, T/C [27]: 9.64%
viability, T/C [28]: 6.45%
viability, T/C [29]: 5.47%
viability, T/C [30]: 1.34%
viability, T/C [31]: 11.1%
viability, T/C [32]: 6.83%
viability, T/C [33]: 5.98%
viability, T/C [34]: 5.62%
viability, T/C [35]: 2.9%
viability, T/C [36]: 1.51%

Nc1ccn(C2OC(CO)C(O)C2(F)F)c(=O)n1 (stereo not drawn) + C#Cc1c(F)ccc2cc(O)cc(-c3ncc4c(N5CC6CCC(C5)N6)nc(OCC56CCCN5CC(F)C6)nc4c3F)c12
IC50 (second compound 0.0316 µM): 170 nM
IC50 (second compound 0.1 µM): 164 nM
IC50 (second compound 0.316 µM): 118 nM
IC50 (second compound 1 µM): 74.4 nM
IC50 (second compound 3.16 µM): 57.6 nM
IC50 (second compound 10 µM): < 3.16 nM
viability, T/C (second compound 0.0316 µM, first compound 0.00316 µM): 101%
viability, T/C (second compound 0.0316 µM, first compound 0.01 µM): 104%
viability, T/C [1]: 81%
viability, T/C [2]: 72.6%
viability, T/C [3]: 20.5%
viability, T/C [4]: 26.8%
viability, T/C (second compound 0.1 µM, first compound 0.00316 µM): 104%
viability, T/C (second compound 0.1 µM, first compound 0.01 µM): 97.1%
viability, T/C [7]: 85.5%
viability, T/C [8]: 72.6%
viability, T/C [9]: 15.2%
viability, T/C [10]: 24.4%
viability, T/C (second compound 0.316 µM, first compound 0.00316 µM): 92.5%
viability, T/C (second compound 0.316 µM, first compound 0.01 µM): 92.4%
viability, T/C [13]: 84.1%
viability, T/C [14]: 56.4%
viability, T/C [15]: 16.5%
viability, T/C [16]: 17.5%
viability, T/C (second compound 1 µM, first compound 0.00316 µM): 76.9%
viability, T/C (second compound 1 µM, first compound 0.01 µM): 79.5%
viability, T/C [19]: 66.8%
viability, T/C [20]: 45.5%
viability, T/C [21]: 13.8%
viability, T/C [22]: 17.5%
viability, T/C (second compound 3.16 µM, first compound 0.00316 µM): 61.1%
viability, T/C (second compound 3.16 µM, first compound 0.01 µM): 62.6%
viability, T/C [25]: 61.3%
viability, T/C [26]: 39.9%
viability, T/C [27]: 14.8%
viability, T/C [28]: 12.8%
viability, T/C (second compound 10 µM, first compound 0.00316 µM): 54.7%
viability, T/C (second compound 10 µM, first compound 0.01 µM): 45.1%
viability, T/C [31]: 41.7%
viability, T/C [32]: 15.1%
viability, T/C [33]: 18.1%
viability, T/C [34]: 16.2%
